# Experimental data published in article PMC3637054, “Comparison of activity indexes for recognizing enzyme mutants of higher activity with uricase as model” (Chemistry Central Journal, 2013).
# Test system: T1, uricase of Asahi-Kasei
# T1 construct: gene urate oxidase; commercial diagnostic enzyme of Asahi-Kasei
# Experiment: UV absorbance at […] nm, initial rates, Lineweaver-Burk
# Type: biochemical
# Details: borate buffer, 25 °C
structure (smiles),measurement,value
O=c1[nH]c(=O)c2[nH]c(=O)[nH]c2[nH]1 [uric acid],Km,~30 µM
